The values that follow come from publication PMC10058748, “Triterpenoids of Three Apple Cultivars—Biosynthesis, Antioxidative and Anti-Inflammatory Properties, and Fate during Processing” (Molecules, 2023).

Series [1] can be described thus: ABTS radical cation scavenging activity. To be noted: expressed per dry mass; 1% DMSO; 6 min incubation, 734 nm.
Experimental: The scavenging activity against ABTS^•+ was measured with a protocol described by Re et al. [63]. […] Then, 25 µL samples were mixed with 2.5 mL of ABTS^•+ solution and incubated for 6 min. […] Trolox was chosen as a reference antioxidant.
The nature of series [2]: DPPH radical scavenging activity. To be noted: expressed per dry mass; 1% DMSO; 30 min at room temperature, 517 nm. A general note: Loss of DPPH colour is used to gauge radical scavenging.
Experimental: A method described by Yen and Chen was used to determine the activity against DPPH^• [64]. Briefly, 0.1 mL samples were mixed with 2 mL of DPPH^• solution (1 mM) and incubated at room temperature for 30 min. […] Trolox was chosen as a reference antioxidant.
Series [3] has as its target T1, 5-lipoxygenase (5-LOX) (Homo sapiens, UniProt P09917).
T1 construct: purchased abcam ab284521
T1 sequence (P09917 1-674): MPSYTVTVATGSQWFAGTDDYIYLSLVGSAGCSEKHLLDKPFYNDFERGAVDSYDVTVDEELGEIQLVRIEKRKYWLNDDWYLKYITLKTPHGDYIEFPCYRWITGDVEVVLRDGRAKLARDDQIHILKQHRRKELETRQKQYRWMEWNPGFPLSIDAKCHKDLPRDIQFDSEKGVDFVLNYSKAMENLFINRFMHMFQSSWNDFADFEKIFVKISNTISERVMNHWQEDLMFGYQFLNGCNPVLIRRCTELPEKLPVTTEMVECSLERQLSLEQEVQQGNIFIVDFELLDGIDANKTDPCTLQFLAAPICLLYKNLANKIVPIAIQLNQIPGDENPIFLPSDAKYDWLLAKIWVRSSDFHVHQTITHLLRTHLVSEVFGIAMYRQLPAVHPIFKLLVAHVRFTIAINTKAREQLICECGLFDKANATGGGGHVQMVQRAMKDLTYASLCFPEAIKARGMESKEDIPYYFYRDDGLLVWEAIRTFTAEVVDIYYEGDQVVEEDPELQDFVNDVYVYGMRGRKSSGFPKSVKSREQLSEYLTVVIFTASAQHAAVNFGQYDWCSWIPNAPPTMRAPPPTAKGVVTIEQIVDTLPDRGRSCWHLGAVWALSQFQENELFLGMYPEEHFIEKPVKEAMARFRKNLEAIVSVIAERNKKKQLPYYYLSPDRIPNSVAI
The series can be described thus: 5-LOX inhibition (commercial kit, abcam ab284521). Format: biochemical. The following applies: expressed per dry mass; 1% DMSO. The method, then: The selected peel extracts as well as the standards of triterpenic compounds were analyzed for their antioxidative and anti-inflammatory properties. Due to their hydrophobic character, the samples were dissolved in dimethyl sulfoxide (DMSO). The content of DMSO in the reaction media in all the tests described below was 1% for all the tested samples as well as the controls.
The anti-inflammatory activity was evaluated using commercial kits for three enzymes of biological activity: cyclooxygenases 1 and 2 (COX-1 and COX-2) and 5-lipoxygenase (5-LOX), according to the instructions of the producers. Inhibition of the cyclooxygenases was measured using kits from Cayman Chemicals (Ann Arbor, MI, USA; items 701070 and 701080, respectively), while 5-LOX inhibition was measured using a kit from abcam (Cambridge, UK; item no. ab284521).

The conditions of series [4]: heating; cited from earlier work.
Series [5] has as its target T2, cyclooxygenase 1 (COX-1) (Homo sapiens, UniProt P23219).
T2 construct: purchased Cayman Chemicals 701070
The series can be described thus: COX-1 inhibition (commercial kit, Cayman Chemicals item 701070). Format: biochemical. To be noted: expressed per dry mass; 1% DMSO.

For series [6], the target named is T3, cyclooxygenase 2 (COX-2) (Homo sapiens, UniProt P35354).
T3 sequence (P35354 18-604): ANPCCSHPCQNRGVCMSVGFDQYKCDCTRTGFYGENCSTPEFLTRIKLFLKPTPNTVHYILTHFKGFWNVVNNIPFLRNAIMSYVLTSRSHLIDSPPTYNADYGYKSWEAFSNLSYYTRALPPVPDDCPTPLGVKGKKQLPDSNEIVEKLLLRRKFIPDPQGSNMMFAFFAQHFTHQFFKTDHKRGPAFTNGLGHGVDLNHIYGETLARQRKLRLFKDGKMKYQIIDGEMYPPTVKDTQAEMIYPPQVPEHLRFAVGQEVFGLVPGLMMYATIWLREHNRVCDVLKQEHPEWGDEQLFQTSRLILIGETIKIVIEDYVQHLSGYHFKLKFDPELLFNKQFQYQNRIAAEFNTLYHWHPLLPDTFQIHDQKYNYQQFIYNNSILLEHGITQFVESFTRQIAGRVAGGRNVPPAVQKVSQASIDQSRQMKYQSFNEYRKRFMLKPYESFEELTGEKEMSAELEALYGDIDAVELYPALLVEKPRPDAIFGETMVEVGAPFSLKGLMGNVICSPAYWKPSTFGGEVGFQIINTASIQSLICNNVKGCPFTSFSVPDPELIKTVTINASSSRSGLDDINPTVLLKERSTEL
The series can be described thus: COX-2 inhibition (commercial kit, Cayman Chemicals item 701080). The series is classed as biochemical. To be noted: expressed per dry mass; 1% DMSO.

SMILES strings stand for the structures. In brackets after ≈: the same amount, converted by molar mass. Where only a bound is given, the exact number is not on record here.

T2 sequence (P23219 24-599): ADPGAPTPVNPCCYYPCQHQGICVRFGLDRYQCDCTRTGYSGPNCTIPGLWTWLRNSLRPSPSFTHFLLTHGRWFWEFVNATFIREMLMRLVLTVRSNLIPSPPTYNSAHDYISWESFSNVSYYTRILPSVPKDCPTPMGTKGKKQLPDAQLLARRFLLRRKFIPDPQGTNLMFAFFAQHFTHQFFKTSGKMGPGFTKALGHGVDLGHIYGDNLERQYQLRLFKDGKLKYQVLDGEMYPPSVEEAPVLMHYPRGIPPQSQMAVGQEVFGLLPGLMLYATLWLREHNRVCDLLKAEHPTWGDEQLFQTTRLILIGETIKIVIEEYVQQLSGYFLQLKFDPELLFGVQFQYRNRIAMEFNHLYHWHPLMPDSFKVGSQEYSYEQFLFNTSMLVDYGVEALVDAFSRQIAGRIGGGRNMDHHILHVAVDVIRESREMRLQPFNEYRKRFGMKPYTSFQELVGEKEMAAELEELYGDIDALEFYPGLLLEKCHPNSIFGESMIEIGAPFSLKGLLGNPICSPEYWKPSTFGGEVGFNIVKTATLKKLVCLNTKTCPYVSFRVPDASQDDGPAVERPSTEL

On to `CC1(C)CC[C@]2(C(=O)O)CC[C@]3(C)C(=CC[C@@H]4[C@@]5(C)CC[C@H](O)C(C)(C)[C@@H]5CC[C@]43C)[C@@H]2C1` [Oleanolic Acid, Oleanolic acid], for which the “IC50 ABTS^•+ scavenging” value in series [1] is 155 ± 7 µg/mL (≈ 339 µM). In addition, the “IC50 DPPH^• scavenging” value in series [2] is 96 ± 5 µg/mL (≈ 210 µM). The half-inhibitory concentration (IC50) in series [3] was 1400 µM. Besides, the “temperature above which degradative processes occur” value in series [4] is “above 200 °C”.
As to `O=C(/C=C/c1ccc(O)c(O)c1)O[C@@H]1C[C@](O)(C(=O)O)C[C@@H](O)[C@H]1O` [Chlorogenic Acid, chlorogenic acid], the IC50 in series [5] is 2960 µM; in series [6], 1730 µM; in series [3] it was over 14100 µM.
`O=C(CCc1ccc(O)cc1)c1c(O)cc(O)cc1O[C@@H]1O[C@H](CO)[C@@H](O)[C@H](O)[C@H]1O` [Phloridzin, phloridzin]: the “IC50 ABTS^•+ scavenging” value in series [1] was 34 ± 4 µg/mL (≈ 77.9 µM). In addition, the “IC50 DPPH^• scavenging” value in series [2] was determined as 23 ± 3 µg/mL (≈ 52.7 µM). Further, the figures for the IC50 in series [5], in series [6] and in series [3] were 2200 µM, 1480 µM and over 11500 µM, respectively.
Regarding `C[C@H]1[C@H](C)CC[C@]2(C(=O)O)CC[C@]3(C)C(=CC[C@@H]4[C@@]5(C)CC[C@H](O)C(C)(C)[C@@H]5CC[C@]43C)[C@H]12` [Ursolic Acid, Ursolic acid], the IC50 is 114 µM in series [5], 67.9 µM in series [6] and 1570 µM in series [3].
On to `CC[C@H](CC[C@@H](C)[C@H]1CC[C@H]2[C@@H]3CC=C4C[C@@H](O)CC[C@]4(C)[C@H]3CC[C@]12C)C(C)C` [β-Sitosterol, β-sitosterol], for which the values for the IC50 in series [6] and in series [3] were 921 µM and 4200 µM, respectively.

Usually IC50 stands for the point on the concentration scale where inhibition reaches its midpoint. Read a low IC50 as higher potency.
